Measurements reported in ChEMBL document CHEMBL1201862, “PubChem BioAssay data set” (2004).
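Dose response: 5 concentrations. Exposure: 48 h. Format: 96-well plates. Endpoint: linear interpolation; highest concentration if not reached. Abbreviation: GI50, concentration required for 50% inhibition of growth.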 Calls of active or inactive are those of the source. Rule as the data show it: active = GI50 up to about 1.1 µM and inactive = higher.

Experiments:
Assay in all cases: NCI anticancer screen, dose series, 48 h
[1] = system: A549
[2] = system: COLO 205
[3] = system: EKVX
[4] = system: HOP-62
[5] = system: IGROV-1
[6] = system: KM12
[7] = system: M14
[8] = system: NCI-H226
[9] = system: OVCAR-3
[10] = system: OVCAR-4
[11] = system: RPMI-8226
[12] = system: SF-539
[13] = system: SK-MEL-5
[14] = system: TK-10
[15] = system: U-251
[16] = system: UACC-62
[17] = system: UO-31
[18] = system: A498
[19] = system: NCI/ADR-RES
[20] = system: SK-OV-3

Row | SMILES | GI50 [1] | GI50 [2] | GI50 [3] | GI50 [4] | GI50 [5] | GI50 [6] | GI50 [7] | GI50 [8] | GI50 [9] | GI50 [10] | GI50 [11] | GI50 [12] | GI50 [13] | GI50 [14] | GI50 [15] | GI50 [16] | GI50 [17] | GI50 [18] | GI50 [19] | GI50 [20]
1 | CCCCCCCCCCCCCCCC(=O)OC1C(O)C(CO)OC(OC)C1NC(=O)N(CCCl)N=O (stereo unspecified) | 10.3 µM (inactive) | 18.7 µM (inactive) | 20.1 µM (inactive) | 15.4 µM (inactive) | 17.4 µM (inactive) | 16.5 µM (inactive) | 18.4 µM (inactive) | 16.6 µM (inactive) | 18.7 µM (inactive) | 20.6 µM (inactive) | 21.1 µM (inactive) | 1.08 µM (active) | 13.2 µM (inactive) | 15.5 µM (inactive) | 5.22 µM (inactive) | 2 µM (inactive) | 15.2 µM (inactive) |  |  | 
2 | CO/N=C1/c2sccc2[C@H](NC(=O)C(F)(F)F)[C@@H]1O | > 100 µM (inactive) | > 100 µM (inactive) | > 100 µM (inactive) | > 100 µM (inactive) | > 100 µM (inactive) |  | > 100 µM (inactive) | > 100 µM (inactive) | > 100 µM (inactive) | > 100 µM (inactive) |  | > 100 µM (inactive) | > 100 µM (inactive) | > 100 µM (inactive) | > 100 µM (inactive) | > 100 µM (inactive) | > 100 µM (inactive) | > 100 µM (inactive) | > 100 µM (inactive) | > 100 µM (inactive)
3 | CCCCCCCCCOCC(COP(=O)([O-])OCC[N+](C)(C)C)OC (stereo unspecified) | > 100 µM (inactive) | > 100 µM (inactive) | > 100 µM (inactive) | > 100 µM (inactive) | > 65.6 µM (inactive) | > 100 µM (inactive) |  | 99.1 µM (inactive) | > 100 µM (inactive) | > 100 µM (inactive) | > 100 µM (inactive) | > 100 µM (inactive) | > 100 µM (inactive) |  | > 100 µM (inactive) | > 100 µM (inactive) | > 100 µM (inactive) | > 100 µM (inactive) | > 100 µM (inactive) | > 100 µM (inactive)
4 | COc1ccc(N2CN(C)CSC2=S)cc1 | > 100 µM (inactive) | > 100 µM (inactive) | > 100 µM (inactive) | 25.9 µM (inactive) | 77.6 µM (inactive) | > 100 µM (inactive) | 38.5 µM (inactive) |  | 4.73 µM (inactive) | > 100 µM (inactive) | 32.3 µM (inactive) | > 100 µM (inactive) | > 100 µM (inactive) | > 100 µM (inactive) | > 100 µM (inactive) | > 100 µM (inactive) | > 100 µM (inactive) | > 100 µM (inactive) | > 100 µM (inactive) | 27.1 µM (inactive)
5 | CC(=O)CC(=O)CCC(=O)O [SUCCINYLACETONE] | > 100 µM (inactive) | > 100 µM (inactive) | > 100 µM (inactive) |  | > 100 µM (inactive) | 47.4 µM (inactive) | > 100 µM (inactive) | > 100 µM (inactive) |  |  |  | > 100 µM (inactive) |  | > 100 µM (inactive) | > 100 µM (inactive) |  | > 100 µM (inactive) |  |  | > 100 µM (inactive)
6 | O=C1CNC(=O)N1 [HYDANTOIN] | > 1120 µM (inactive) | > 1120 µM (inactive) | > 1120 µM (inactive) | > 1120 µM (inactive) | > 1120 µM (inactive) | > 1120 µM (inactive) |  | 11.2 µM (inactive) | > 1120 µM (inactive) | > 1120 µM (inactive) | > 1120 µM (inactive) | > 1120 µM (inactive) | > 1120 µM (inactive) |  | > 1120 µM (inactive) | > 1120 µM (inactive) | > 1120 µM (inactive) | > 1120 µM (inactive) | > 1120 µM (inactive) | > 1120 µM (inactive)
7 | COC(=O)Cc1c(-c2c(CC(=O)OC)c3ccccc3n2C2OC(COC(C)=O)C(OC(C)=O)C(OC(C)=O)C2OC(C)=O)[nH]c2ccccc12 (stereo unspecified) | > 100 µM (inactive) | > 100 µM (inactive) | > 100 µM (inactive) | > 100 µM (inactive) | 74.6 µM (inactive) | 85.3 µM (inactive) | > 100 µM (inactive) |  | > 100 µM (inactive) | > 100 µM (inactive) | > 100 µM (inactive) |  | > 100 µM (inactive) | > 100 µM (inactive) | > 100 µM (inactive) | > 100 µM (inactive) | > 100 µM (inactive) | 52.4 µM (inactive) |  | > 100 µM (inactive)
8 | O=C(N/N=C\c1cccc2ccccc12)Nc1ccccc1 |  | > 100 µM (inactive) |  | > 100 µM (inactive) | > 100 µM (inactive) | > 100 µM (inactive) | > 100 µM (inactive) | > 100 µM (inactive) | > 100 µM (inactive) | > 100 µM (inactive) | > 100 µM (inactive) |  | > 100 µM (inactive) | > 100 µM (inactive) | > 100 µM (inactive) | > 100 µM (inactive) | > 100 µM (inactive) | > 100 µM (inactive) | > 100 µM (inactive) | > 100 µM (inactive)
9 | CCCOC1OC(CS(=O)(=O)O)C(OC(C)=O)C(OC(C)=O)C1OC(C)=O (stereo unspecified) |  | > 100 µM (inactive) |  | > 100 µM (inactive) | > 100 µM (inactive) | > 100 µM (inactive) | > 100 µM (inactive) | > 100 µM (inactive) | > 100 µM (inactive) | > 100 µM (inactive) | > 100 µM (inactive) |  | > 100 µM (inactive) | > 100 µM (inactive) | > 100 µM (inactive) | > 100 µM (inactive) | > 100 µM (inactive) | > 100 µM (inactive) | > 100 µM (inactive) | > 100 µM (inactive)
10 | Cc1ccc2c(=O)c3ccccc3sc2c1 | > 100 µM (inactive) | > 100 µM (inactive) | 55.2 µM (inactive) | > 100 µM (inactive) | > 100 µM (inactive) | 53.7 µM (inactive) | > 100 µM (inactive) | > 100 µM (inactive) | > 100 µM (inactive) | > 100 µM (inactive) | > 100 µM (inactive) | > 100 µM (inactive) | > 100 µM (inactive) | > 100 µM (inactive) | > 100 µM (inactive) | > 100 µM (inactive) | > 100 µM (inactive) |  |  | > 100 µM (inactive)
